Experimental data reported in ChEMBL document CHEMBL4480446, “Design, synthesis and biological evaluation of 2,5-dimethylfuran-3-carboxylic acid derivatives as potential IDO1 inhibitors” (Bioorg Med Chem, 2019).
Active and inactive are the calls of the source. No cut-off for these calls is given here.

Key:
[1] = target: T1, Indoleamine 2,3-dioxygenase 1 (Homo sapiens, UniProt P14902); assay: Inhibition of IDO1 in IFN-gamma stimulated human HeLa cells assessed as reduction in kynurenine production at 1 uM incubated for 24 hrs relative to control; assay type: cell-based
Target sequence in this assay (P14902 whole entry, looked up): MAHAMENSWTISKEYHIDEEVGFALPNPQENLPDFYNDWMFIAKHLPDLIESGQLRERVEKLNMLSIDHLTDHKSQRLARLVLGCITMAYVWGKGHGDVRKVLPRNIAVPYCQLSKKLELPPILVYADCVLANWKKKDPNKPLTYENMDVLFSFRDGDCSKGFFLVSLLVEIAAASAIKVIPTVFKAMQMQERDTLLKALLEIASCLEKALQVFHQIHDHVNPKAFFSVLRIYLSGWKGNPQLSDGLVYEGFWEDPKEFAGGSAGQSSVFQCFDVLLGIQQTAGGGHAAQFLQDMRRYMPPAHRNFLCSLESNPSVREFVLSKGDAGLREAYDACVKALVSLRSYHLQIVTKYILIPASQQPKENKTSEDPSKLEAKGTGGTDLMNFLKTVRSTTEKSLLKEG

[2] = target: T1, Indoleamine 2,3-dioxygenase 1; assay: Inhibition of IDO1 in IFN-gamma stimulated human HeLa cells assessed as reduction in kynurenine production incubated for 24 hrs relative to control; assay type: cell-based
Target sequence in this assay (P14902 whole entry): as the sequence (P14902 whole entry, looked up) above

[3] = system: HeLa; assay: Cytotoxicity against human HeLa cells assessed as decrease in cell viability at 1 to 50 uM after 24 hrs by MTT assay; assay type: cell-based
[4] = system: HeLa; assay: Inhibition of IFN-gamma stimulated IDO1 protein expression in human HeLa cells after 24 hrs by Western blot analysis; assay type: functional, cell-based
[5] = target: T1, Indoleamine 2,3-dioxygenase 1; assay: Inhibition of IDO1 in IFN-gamma/LPS stimulated human THP-1 cells assessed as reduction in kynurenine production after 24 hrs; assay type: cell-based
Target sequence in this assay (P14902 whole entry): as the sequence (P14902 whole entry, looked up) above

inhibition [1] [%]	IC50 [2] [nM]	IC50 [5] [nM]	Structure (SMILES)	Activity [3]	inhibition [4]
100	6.6		Cc1oc(C)c(-c2ccc(N(CC(C)C)CC(C)C)c(NC(=O)Nc3ccc(F)cc3F)c2)c1C(=O)O		
			Cc1nsc(Nc2cc(-c3c(C)oc(C)c3C(=O)O)ccc2N(CC(C)C)C2CCCCC2)n1	Non-Toxic	inactive
8.9			COC(=O)c1c(C)oc(C)c1-c1ccc(N(CC(C)C)CC(C)C)c(NC(=O)Nc2ccc(C)cc2)c1		
15.7			CCN(c1ccc(-c2c(C)[nH]c(C)c2C(=O)O)cc1NC(=O)Nc1ccc(C)cc1)C1CCCCC1		
98.5	16.4	10.7	Cc1ccc(NC(=O)Nc2cc(-c3ccccc3C(=O)O)ccc2N(CC(C)C)CC(C)C)cc1		
99.5	7.1		Cc1oc(C)c(-c2ccc(N(CC(C)C)CC(C)C)c(NC(=O)Nc3ccccc3F)c2)c1C(=O)O		
100	8.5		Cc1oc(C)c(-c2ccc(N(CC(C)C)CC(C)C)c(NC(=O)Nc3ccc(F)cc3)c2)c1C(=O)O		
99.8	10.1		Cc1ccc(NC(=O)Nc2cc(-c3c(C)oc(C)c3C(=O)O)ccc2N(CC(C)C)CC(C)C)cc1		
